Like-named read-outs stand apart in the source and are kept apart here.
How the values were obtained:
MDA-MB-231 cells = test: Time-lapse videomicroscopy of mitosis; format: cell-based, human
Procedure: Cells in sealed T-25 tissue culture flasks were placed into a temperature-controlled incubation chamber built to enclose an inverted phase-contrast microscope. The chamber was shielded from ambient room light. Every 5 min, the microscope light was switched on for 12s, during which time an image was captured by an imaging system obtained from Compix, Inc. (Mars, Pa., USA). Image sequences were analyzed with software from the same company.
^a Mitoses were monitored by timelapse videomicroscopy during
continuous exposure of cells to DIME;
^b Fusion of daughter cells usually occurred within minutes of
cytokinesis and involved 2-5 daughter cells.

HT 144 (melanoma) = test: Cytocidal action/growth inhibition, HT 144; format: cell-based; details: Homo sapiens
Procedure: Seven human cancer cell lines were obtained from the American Tissue Culture Collection (Rockville, Md.) and maintained in the recommended growth media. Cells were seeded into wells (2 cm^2) at a density of 2×10^4 cells/cm^2. Various concentrations of Compounds 1-13 were added to the media at the time of seeding.
The cultures were incubated for 72 hours at 37° C. (5% CO2 atmosphere). Following incubation, cells were detached with trypsin and counted in a hemocytometer.
I100 designates the concentration at which no viable cells remained; I50 the concentration at which 50% viable cells remained, as compared to a control.
(§1) E-ras 20 cells were cultured as reported, Bauer et al., 1996, "Modification of growth related enzymatic pathways and apparent loss of tumorigenicity of a ras-transformed bovine endothelial cell line by treatment with 5-iodo-6-amino-1,2-benzopyrone (INH2 BP)" Intl. J. Oncol. 8:239-252; HT-144 (melanoma), DU-145 (prostatic cancer), HeLa (cervical cancer), HL 60 (promyelocytic leukemia), MDA-MB-231 (mammary cancer), SK-Br-3 (mammary cancer), T47D (ductal mammary cancer), A559 (lung cancer) were obtained from American Type Culture Collection (Rockville, Md.) and cultured in prescribed media. The effect of DIME was tested in cultures with a starting cell density of 2×10^4 cells per cm^2 and comparison of the effect of DIME on cell growth (intact cells identified by Trypan blue exclusion) was assayed by direct cell counting after trypsinization in a hemocytometer 72 hours after drug addition.
(§2) For DIME-exposure experiments cells were seeded into 2 cm^2 wells at a density of 2×10^4 cells/cm^2. DIME at various concentrations was added to the medium at the time of seeding. The cell cultures were then incubated for 3 days (37° C. in 5% at CO2 atmosphere).

protein phosphatase 2A = test: Activation of purified protein phosphatase 2A (32P-histone H1 dephosphorylation); format: biochemical; details: 50 μM, 10 min preincubation
Procedure: 2.1 Preparation of ^32 P-labeled Histone H1 Substrate
Histone H1 was phosphorylated with protein kinase C (Upstate Biotechnology,Inc., Lake Placid, N.Y.) in a volume of 100 μL according to standard protocols. Alternatively, histone H1 was phosphorylated with p34cdc2 kinase purified from rapidly multiplying Mytilus Edulis embryos at 4-8 stage after isolation with the p^13 -Suc agarose technique (Smythe and Newport, 1992, "Coupling of Mitosis to the Completion of S Phase in Xenopus Occurs via Modulation of the Tyrosine Kinase that Phosphorylates p34cdc2," Cell 68:787-797).
125 ng purified protein phosphatase 2A (Upstate Biotechnology, Inc., Lake Placid, N.Y.; Usui et al., 1983, J. Biol. Chem. 258:10455-10463) was preincubated with thyroxine analogue (50 μM) in buffer (20 mM MOPS or Tris, pH 7.5, 1 mM MgCl2, 60 μM β-mercaptoethanol) for 10 min. at 23° C. Total reaction volume was 20 μL. ^32 P-labeled histone H1 substrate (10 μg, 10^5 cpm) was added and the dephosphorylation reaction allowed to proceed for 5 min. at 23° C., after which time the reaction was quenched by addition of 2 μL Laeimli buffer. An identical reaction containing 125 ng untreated protein phosphatase 2A was run as a control.
Phosphorylated and dephosphorylated histone H1 were separated by gel electrophoresis (12% SDS-PAGE), bands containing phosphorylated histone H1 excised and assayed for ^32 P activity via scintillation counter.
The velocity of dephosphorylation in 5 min. is an indication of the initial velocity (Vinit) of the dephosphorylation reaction.

[1] = tested on: protein phosphatase 2A (E-ras 20 cell nuclear extract); test: Phosphatase activity, E-ras 20 cell nuclear extract; format: cell-based, bovine
Procedure: Compounds 1-13 were tested for protein phosphatase 2A activation in malignant tumor cell cultures in vitro according to the protocol described in Bauer et al., 1996, "Modification of Growth Related Enzymatic Pathways and Apparent Loss of Tumorigenicity of a Ras-Transformed Bovine Endothelial Cell Line by Treatment with 5-Iodo-6-Amino-1,2-Benzopyrone (INH2 BP)," International J. of Oncology 8:239-252. All other compounds were ineffective.

[2] = tested on: E-ras transformed bovine endothelial cells; test: Morphology of E-ras cells; format: cell-based
Procedure: E-ras transformed bovine endothelial cells (Bauer et al., 1996, Intl. J. Oncology 8:239-252) were exposed to 10 μM DIME for […]. The DIME-treated cells (10^5 or 10^6 cells/100 μL) were injected subcutaneously into nude mice and tumor progression followed for 25 days.
Microscopic morphology of E-ras cells was examined by techniques reported earlier, Mendeleyev et al., 1997, "Structural Specificity and Tumoricidal Action of Methyl-3,5-Diiodo-4-(4'- Methoxyphenoxy) Benzoate (DIME)," Intl. J. Oncol.,in press; Bauer et al., 1996, "Modification of Growth Related Enzymatic Pathways and Apparent Loss of Tumorigenicity of a ras-Transformed Bovine Endothelial Cell Line" by Treatment With 5-iodo-6-amino-1,2-benzopyrone (INH BP).

[3] = tested on: iodine uptake into the thyroid; details: rats, as compared to thyroxine (Money et al., 1959); cited from earlier work
E-ras 20 cells = test: Growth inhibition, E-ras 20; format: cell-based, bovine; details: Bos taurus, 72 h; day 3; Table 11; read-out: I50 (day 3)
Procedure: as §1, §2

noncancer cells = test: Replication of noncancer cells in culture; format: cell-based; details: cells growing in cultures; not shown

COC(=O)c1cc(I)c(Oc2ccc(OC)cc2)c(I)c1 [Compound 1, Methyl 3,5-diiodo-4-(4'-methoxyphenoxy)benzoate]
increase of average time spent in mitosis (MDA-MB-231 cells; 1 μM): more than 20 fold | mitoses yielding daughter cells which fused (share) (MDA-MB-231 cells; 1 μM): Twenty percent | rate of entry into mitosis / traversal of interphase (MDA-MB-231 cells; 1 μM): did not affect the rate at which the cells traversed interphase | No. of mitosis followed by fusion of daughter cells (MDA-MB-231 cells; 1.0 μM, 35 mitoses monitored, control 0 of 32): 7 | delay in mitosis (MDA-MB-231 cells; 1 μM, control approximately 0.5 hr): 13 h | daughter cells in irregular division (FIG. 12) (MDA-MB-231 cells; 1 μM, control exactly 2): 6 daughter cells | IC50 (HT 144 (melanoma); HT-144, 72 h, day 3, Table 11, read-out: I50 (day 3)): 500 nM | IC50 (HT 144 (melanoma); HT-144, 72 h, Table 4, read-out: I50): 500 nM | IC100 (HT 144 (melanoma); HT-144, 72 h, Table 4, read-out: I100 (no viable cells remained)): 4 µM | Activity/5 min (initial velocity of histone H1 dephosphorylation) (protein phosphatase 2A; control 10217 ± 1708, average of three samples): 24655 ± 8600 cpm | increase of Vinit of histone H1 dephosphorylation (protein phosphatase 2A): more than doubles Vinit | Phosphatase Activity ([1]; 50 μM DIME, untreated 29 ± 5): 44 ± 7 fmol Pi/mg protein × min. | activation of protein phosphatase 2A, fold ([1]; 50 μM, E-ras transformed cells): at least two-fold | cell morphology ([2]; 4 μM, 18-24 hrs, E-ras 20 cells): tumor cells enlarged and, as especially visible at 300-fold magnification, numerous micronuclei appeared | micronucleation ([2]; 10 μM, 3 days): induced extensive micronucleation | inhibition of uptake of iodine into the thyroid [3]: 15% | IC50 (E-ras 20 cells): 1000 nM | inhibition of replication of noncancer cells (noncancer cells): inhibited to varying degrees
